Tests used:
HL-1 cells [1] = experiment: Cell viability assay (LDH release) in HL-1 cells under Ca2+ overload; format: cell-based, mouse; conditions: Calcimycin 1 μM in HBS KV medium, dose-dependent response
Procedure: Calcium (Ca^2+) Overload Protocol: Rapid and sustained intracellular Ca^2+ overload was obtained by adding the Ca^2+-ionophore, calcimycin (1 μM), to HL-1 cells incubated for 10 min in HBS KV medium (1.26 mM CaCl2, 0.81 mM MgSO4, 0.44 mM KH2PO4, 142 mM KCl, 0.27 mM K2HPO4, 5.55 mM D-glucose, 1 mM Na3VO4, 20 mM Hepes pH 7.4). To monitor intracellular Ca^2+ variations, HL-1 cells were loaded with 5 μM Fluo-4 FF AM (Molecular Probes) in HBS Na (Sigma) for 30 min before the media was replaced with HBS KV. […] Cell Viability Assay: HL-1 plasma membrane integrity was assessed by measuring lactate dehydrogenase (LDH) release in the culture supernatant. An enzymatic assay evaluated LDH activity. Samples of the cell-free culture supernatant were collected at indicated times in Figures/Figure Legends, while cells were lysed in 1% (w/v) Triton X-100 at the end of each experiment to estimate the remaining cellular content of LDH. The LDH activity at each time point was expressed as a percentage of total LDH activity.

HL-1 cells [2] = experiment: Intracellular Ca2+ (Fluo4 FF fluorescence) in HL-1 cells; format: cell-based, mouse; conditions: Calcimycin 1 μM in HBS KV medium
Procedure: (§1) Calcium (Ca^2+) Overload Protocol: Rapid and sustained intracellular Ca^2+ overload was obtained by adding the Ca^2+-ionophore, calcimycin (1 μM), to HL-1 cells incubated for 10 min in HBS KV medium (1.26 mM CaCl2, 0.81 mM MgSO4, 0.44 mM KH2PO4, 142 mM KCl, 0.27 mM K2HPO4, 5.55 mM D-glucose, 1 mM Na3VO4, 20 mM Hepes pH 7.4). To monitor intracellular Ca^2+ variations, HL-1 cells were loaded with 5 μM Fluo-4 FF AM (Molecular Probes) in HBS Na (Sigma) for 30 min before the media was replaced with HBS KV.

CAPN1 = target: T1, CAPN1 (Mus musculus, UniProt O35350); experiment: Western blot of CAPN1 in purified mitochondria from HL-1 cells under Ca2+ overload; format: cell-based; conditions: Ca2+ overload (HBS KVC), calpeptin 50 μM, PD150606 10 μM
T1 construct: endogenous in cells; host or cells: HL-1 cardiomyocytes
T1 sequence (O35350 1-713): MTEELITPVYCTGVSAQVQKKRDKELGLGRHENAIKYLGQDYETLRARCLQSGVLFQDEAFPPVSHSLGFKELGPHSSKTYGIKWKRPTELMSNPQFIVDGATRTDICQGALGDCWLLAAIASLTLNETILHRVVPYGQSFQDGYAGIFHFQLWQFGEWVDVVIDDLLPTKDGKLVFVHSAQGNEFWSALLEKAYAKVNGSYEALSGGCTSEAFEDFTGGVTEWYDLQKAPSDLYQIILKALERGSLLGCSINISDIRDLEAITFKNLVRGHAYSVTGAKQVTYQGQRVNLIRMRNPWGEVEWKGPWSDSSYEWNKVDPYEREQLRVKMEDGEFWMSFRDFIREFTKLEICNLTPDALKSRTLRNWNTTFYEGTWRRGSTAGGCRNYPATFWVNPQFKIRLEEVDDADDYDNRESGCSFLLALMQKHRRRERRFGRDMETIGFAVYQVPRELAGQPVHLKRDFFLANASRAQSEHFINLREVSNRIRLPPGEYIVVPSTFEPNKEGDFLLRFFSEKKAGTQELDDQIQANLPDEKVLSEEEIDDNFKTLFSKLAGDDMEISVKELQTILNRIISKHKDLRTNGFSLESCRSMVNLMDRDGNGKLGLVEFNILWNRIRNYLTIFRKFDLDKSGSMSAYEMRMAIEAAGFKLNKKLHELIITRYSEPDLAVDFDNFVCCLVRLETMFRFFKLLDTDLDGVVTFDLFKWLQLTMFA
T1 sequence (O88456 1-268 partner): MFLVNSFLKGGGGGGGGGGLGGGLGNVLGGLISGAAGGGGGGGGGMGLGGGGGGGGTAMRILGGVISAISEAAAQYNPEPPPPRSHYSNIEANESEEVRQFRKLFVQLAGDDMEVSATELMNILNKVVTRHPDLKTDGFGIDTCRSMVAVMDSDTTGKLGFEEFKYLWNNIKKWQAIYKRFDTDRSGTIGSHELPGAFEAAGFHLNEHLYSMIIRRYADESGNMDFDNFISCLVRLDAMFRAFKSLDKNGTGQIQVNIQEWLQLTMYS
Procedure: as §1, with “KV. The fluorescence was recorded using a fluorimeter plate reader (Fluoroskan Ascent Labsystem) at wavelength settings of 485/530 nm for excitation/emission, respectively.” for “KV.”
Mitochondria Isolation Protocol: Mitochondria were isolated from HL-1 cells in percoll density gradient. Briefly, 30×10^6 adherent cells were harvested with Trypsin/EDTA, centrifuged at 500×g for 10 min, washed in buffer A (100 mM sucrose, 1 mM EGTA, 20 mM MOPS, pH 7.4, and 1 mg/mL BSA) before cell disruption with a Dounce homogenizer. The suspension was centrifuged twice at 500× g for 5 min and the resulting supernatant at 10,000×g for 10 min at 4° C. The pellet was re-suspended in buffer B (300 mM sucrose, 1 mM EGTA, 20 mM MOPS pH 7.4, 1 mg/mL BSA), and the homogenate was layered on a two-phase (25% and 40%) percoll density gradient. […]

mitochondrial CAPN1 translocation (CAPN1): failed to prevent
Structure (SMILES): CCCC[C@@H](C=O)NC(=O)[C@H](CC(C)C)NC(=O)OCc1ccccc1 [calpeptin]
reduction in cell death (LDH release) (HL-1 cells [1]): ~40% | kinetics of cytosolic Ca2+ accumulation (HL-1 cells [2]): neither of them had an impact

From patent US20240109937A1, “BINDING PEPTIDES AND USES THEREOF” (The Johns Hopkins University, priority 2021, published 2024)
